Values of other authors in patent publication US8911777B2, “Pharmaceutical composition of tacrolimus” (Sigmoid Pharma Limited, priority 2007, dated 2014).

Key:
[1] = after oral administration of conventional IR tablets
[2] = whole blood; Masuda et al. 2006

## C=CC[C@@H]1/C=C(\C)C[C@H](C)C[C@H](OC)[C@H]2O[C@@](O)(C(=O)C(=O)N3CCCC[C@H]3C(=O)O[C@H](/C(C)=C/[C@@H]3CC[C@@H](O)[C@H](OC)C3)[C@H](C)[C@@H](O)CC1=O)[C@H](C)C[C@@H]2OC [Tacrolimus]
[1]
  persistence of drug effects: 8 to 12 h
[2]
  blood concentration at which adverse effects occurred: higher than 15 ng/ml
